This is an account of results in the supplement of paper PMC10290057.

Experiment [1] concerns HCT116. As to the kind of experiment: AC50 cell viability (CellTiter-Glo); higher = less potent. The following applies: 48 h. (In general: ATP-based viability assays read luminescence as a measure of living cells.)
The subject of experiment [2] is HCT116. The experiment is described as follows: efficacy (fitted maximal change in viability relative to DMSO control); higher = less cytotoxic (negative = loss of viability). The conditions noted are these: 48 h.
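For AC50 cell viability (CellTiter-Glo) in this document: HCT116 colorectal carcinoma cells screened at five concentrations per compound, luminescent viability scaled between DMSO wells and empty wells on each plate, curves fitted per compound.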
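For efficacy (fitted maximal change in viability relative to DMSO control) in this document: Luminescence-based viability readout, five doses per compound, normalized against on-plate DMSO and empty-well controls, followed by dose-response curve fitting for every drug.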

For `CC1(C)OC/2=C(\[C@H](NCC3=CC=CC=C3)[C@@H]1O)C(=O)C4=CC=CC=C4C2=O`, the AC50 cell viability in the experiment on HCT116 [1] was 2.95 µM. Further, the efficacy in the experiment on HCT116 [2] is -96.8%.
`Cc1cc(-c2nc3cc(F)ccc3s2)ccc1NC(=O)[C@@H](N)CCCCN` had an AC50 cell viability in the experiment on HCT116 [1] of 7.42 µM. Besides, the efficacy with HCT116 [2] is -93.6%.
Consider `Cc1n[nH]c2ccc(-c3cncc(OC[C@@H](N)Cc4ccccc4)c3)cc12`, for which, in the experiment on HCT116 [1], the AC50 cell viability was 0.59 µM. Also, the efficacy in the experiment with HCT116 [2] is -69.5%.
For `COc1cc(Nc2cnc(C#N)c(O[C@H](C)CN(C)C)n2)ncc1-c1cnn(C)c1`, in that order: 11.8 µM and -121%.
For the compound `C[C@@H](Oc1ccc2[nH]nc(/C=C/c3cnn(CCO)c3)c2c1)c1c(Cl)cncc1Cl`, in the experiment with HCT116 [1], the AC50 cell viability stood at 0.661 µM. Also, the efficacy with HCT116 [2] was -79.4%.
For `NC(CSC(c1ccccc1)(c1ccccc1)c1ccccc1)C(=O)O` (stereo in doubt) [S-Trityl-L-cysteine], in that order: 23.5 µM and -53.6%.
On to `Nc1nc(F)nc2c1ncn2[C@@H]1O[C@H](CO)[C@@H](O)[C@@H]1O` [2-Fluoroadenosine], for which the AC50 cell viability in the experiment on HCT116 [1] is 9.34 µM. Besides, in the experiment on HCT116 [2], the efficacy was -57.1%.
For `COc1cc2c(cc1O)CC[C@@H]1[C@@H]2CC[C@]2(C)[C@@H](O)CC[C@@H]12` [2-Methoxyestradiol (2-MeOE2)], in that order: 2.35 µM and -63.9%.
For `NC1=NC=CC2=C1N=C[N]2[C@@H]3\C=C(CO)/[C@@H](O)[C@H]3O` [3-Deazaneplanocin A], in that order: 0.59 µM and -55.4%.
On the same counts, the results for `Cn1cc(-c2ccc([S+](=O)([O-])n3ccc(/C=C/C(=O)Nc4ccccc4N)c3)cc2)cn1` [4SC-202] are 1.48 µM and -76.5%.
In the experiment with HCT116 [1], `NC/1=N/C(=O)N(/C=N1)[C@@H]2O[C@H](CO)[C@@H](O)[C@H]2O` [5-Azacitidine] had an AC50 cell viability of 5.9 µM. The efficacy in the experiment with HCT116 [2] was -82.6%.
On the same counts, the results for `CC(=O)O/N=C1/C(=C2\C(=O)Nc3cc(Br)ccc32)Nc2ccccc21` [6-Bromoindirubin-3'-acetoxime] are 10.5 µM and -92.3%.
On the same counts, the results for `S=C1N\C=N/C2=C1[NH]C=N2` [6-mercaptopurine] are 1.66 µM and -101%.
Consider `CN[C@@H]1C[C@H]2O[C@@](C)([C@@H]1OC)n1c3ccccc3c3c4c(c5c6ccccc6n2c5c31)C(=O)N[C@H]4O` [7-Hydroxystaurosporine], for which the AC50 cell viability in the experiment with HCT116 [1] amounted to 0.241 µM. The efficacy with HCT116 [2] is -92.5%.
On the same counts, the results for `CC[C@@]1(O)C(=O)OCC/2=C1/C=C3\N(CC4=CC5=CC(=CC=C5N=C34)O)C2=O` [10-hydroxycamptothecin] are 0.105 µM and -79.9%.
As to `CCCCC(C)(C)[C@H](O)/C=C/[C@H]1[C@H](O)CC(=O)[C@@H]1C/C=C\CCCC(=O)O` [16,16-dimethyl PGE2], the AC50 cell viability in the experiment on HCT116 [1] was 20.9 µM. For the same compound, the efficacy with HCT116 [2] was -64.7%.
The compound `C=CCNC1=C2CC(C)CC(OC)C(O)C(C)/C=C(\C)C(OC(N)=O)C(OC)/C=C/C=C(\C)C(=O)NC(=CC1=O)C2=O` (stereo not given) [17-AAG (KOS953)] showed an AC50 cell viability in the experiment on HCT116 [1] of 0.417 µM. In addition, in the experiment on HCT116 [2], the efficacy is -60.5%.
Regarding `COC[C@H]1OC(=O)C2=COC3=C2[C@@]1(C)\C4=C(\[C@@H]5CC[C@H](O)[C@@]5(C)C[C@H]4OC(C)=O)C3=O` [17-hydroxy Wortmannin], the AC50 cell viability in the experiment on HCT116 [1] turned out to be 20.9 µM. Moreover, in the experiment on HCT116 [2], the efficacy was -59.9%.
In turn, `COC[C@H]1OC(=O)C2=COC3=C2[C@@]1(C)\C4=C(C5CCC(=O)[C@@]5(C)C[C@H]4OC(C)=O)/C3=O` (stereo not given in full) [17_-hydroxy Wortmannin] had an AC50 cell viability with HCT116 [1] of 0.468 µM. Further, the efficacy in the experiment with HCT116 [2] is -43.9%.
Regarding `CC1=CC=C2\N=C/3N(CC[C@@]3(O)C(=O)C2=C1)C4=CC=CC=C4` [(-)-Blebbistatin], in the experiment with HCT116 [1], the AC50 cell viability came to 0.132 µM. Moreover, the efficacy in the experiment on HCT116 [2] is -35.7%.
In the case of `Cc1cc2c(C(C)C)c(O)c(O)c(C=O)c2c(O)c1-c1c(C)cc2c(C(C)C)c(O)c(O)c(C=O)c2c1O` [(-)-Gossypol], the AC50 cell viability in the experiment with HCT116 [1] was found to be 16.6 µM. In the experiment with HCT116 [2], the efficacy is -115%.
For `Cc1nc(NC(=O)N2CCC[C@H]2C(N)=O)sc1-c1csc(C(C)(C)C)n1` [A-66], in that order: 1.86 µM and -33%.
For `Nc1ncnc2nc(-c3ccc(N4CCOCC4)nc3)cc(-c3cccc(Br)c3)c12` [ABT-702], in that order: 20.9 µM and -53%.
Take `CN(C)CC[C@H](CSc1ccccc1)Nc1ccc([S+](=O)([O-])NC(=O)c2ccc(N3CCN(Cc4ccccc4-c4ccc(Cl)cc4)CC3)cc2)cc1[N+](=O)[O-]` [ABT-737]: in the experiment on HCT116 [1], the AC50 cell viability is 20.9 µM. The efficacy with HCT116 [2] was -68.4%.
Turning to `Cc1c(NC(=O)OC[C@@H]2COCCN2)cn2ncnc(Nc3ccc4c(cnn4Cc4cccc(F)c4)c3)c12` [AC-480], in the experiment with HCT116 [1], the AC50 cell viability came to 20.9 µM. Moreover, in the experiment with HCT116 [2], the efficacy is -82.6%.
The compound `CC(=O)NC(C)c1ccc(Oc2ccc(OC(C)C)cc2)cc1` (stereo not given) [ACC1 BMS] returned an AC50 cell viability with HCT116 [1] of 17.1 µM. The efficacy in the experiment with HCT116 [2] was -47.8%.
As for `Cc1ccc(Nc2nnc(Cc3ccncc3)c3ccccc23)cc1Br` [ACC-789], the AC50 cell viability in the experiment with HCT116 [1] was 20.9 µM. Further, the efficacy in the experiment on HCT116 [2] is -84.8%.
On the same counts, the results for `O=C(CCCCCCNC(=O)c1cnc(N(c2ccccc2)c2ccccc2Cl)nc1)NO` [ACY-241] are 5.9 µM and -86.2%.
On the same counts, the results for `O=C(NO)c1cnc(NC2(c3ccccc3)CC2)nc1` [ACY-738] are 3.32 µM and -79.1%.
For `O=C(NO)c1cnc(NC2(c3cccc(F)c3)CCCCC2)nc1` [ACY-775], in that order: 16.6 µM and -75.6%.
In the experiment on HCT116 [1], `O=C(CCCCCCNC(=O)c1cnc(N(c2ccccc2)c2ccccc2)nc1)NO` [ACY-1215] came in with an AC50 cell viability of 7.42 µM. Moreover, the efficacy with HCT116 [2] is -93.5%.
For `Nc1ncnc2c1c(-c1cccc(OCc3ccccc3)c1)cn2[C@H]1C[C@H](CN2CCCC2)C1` [ADW-742], in that order: 16.6 µM and -84.3%.
For `CCN1CCN(Cc2ccc(-c3cc4c(N[C@H](C)c5ccccc5)ncnc4[nH]3)cc2)CC1` [AEE-788], in that order: 16.6 µM and -97.5%.
On to `CCOC(CN1C(=O)[C@](CC(=O)Nc2ccc(C)cc2)(NC(=O)Nc2ccc(C)cc2)c2ccccc21)OCC` [AG-041R], for which, in the experiment with HCT116 [1], the AC50 cell viability was determined as 23.5 µM. Further, in the experiment with HCT116 [2], the efficacy was -78.5%.
Turning to `CC(C)(C)c1cc(C=C(C#N)C#N)cc(Br)c1O` [AG-1024], the AC50 cell viability in the experiment with HCT116 [1] was determined as 26.3 µM. Moreover, the efficacy in the experiment on HCT116 [2] is -86.1%.
On the same counts, the results for `COc1cc2ncnc(Nc3cccc(Cl)c3)c2cc1OC` [AG-1478] are 23.5 µM and -91.8%.
For `O=C(Nc1cccc(C(F)(F)F)c1)Nc1cc([S+](=O)([O-])NC2CC2)ccc1-c1ccsc1` [AGI-6780], in that order: 26.3 µM and -99.4%.
On the same counts, the results for `O=C(O)c1ccc2cc(-c3ccc(O)c(C45CC6CC(CC(C6)C4)C5)c3)ccc2c1` [AHPN] are 2.95 µM and -88.2%.
For the compound `c1ccc(-c2oc3ncnc(NC[C@@H]4CCCO4)c3c2-c2ccccc2)cc1` [AIM-100], the AC50 cell viability in the experiment with HCT116 [1] was found to be 9.34 µM. The efficacy with HCT116 [2] is -69.3%.
Regarding `O=c1[nH]c2ccccc2n1C1CCN(Cc2ccc(-c3nc4cc5nc[nH]c5cc4nc3-c3ccccc3)cc2)CC1` [AKT Inhibitor VIII], the AC50 cell viability in the experiment with HCT116 [1] amounted to 16.6 µM. In addition, the efficacy in the experiment on HCT116 [2] is -84.5%.
For `CCN1CCN(Cc2ccc(NC(=O)c3ccc(C)c(NC(=O)c4cncc(-c5cccs5)c4)c3)cc2C(F)(F)F)CC1` [ALW-II-41-27], in that order: 1.86 µM and -111%.
On the same counts, the results for `CN(CCO)C1CCN(c2ccc(Nc3ncc4c5ccnc(F)c5n(C5CCCC5)c4n3)nc2)CC1` [AM-5992] are 1.02 µM and -50%.
For `COC1=CC=C2C(=CC=NC2=C1)OC3=CC=C(NC(=O)\C4=C(C)\N(CC(C)(C)O)N(C4=O)C5=CC=CC=C5)C=C3F` [AMG-1], the AC50 cell viability in the experiment on HCT116 [1] was determined as 11.8 µM. Besides, the efficacy in the experiment on HCT116 [2] was -67.9%.
Consider `CC\1=C(C(=O)N(\C=C1)C2=CC=C(C=C2)C3=NC=CO3)/C4=CC5=CN=C(N)N=C5C=C4` [AMG-25], for which, in the experiment with HCT116 [1], the AC50 cell viability was found to be 1.66 µM. Moreover, in the experiment on HCT116 [2], the efficacy was -47.6%.
For `Cc1ccc(C(=O)Nc2cccc(C(F)(F)F)c2)cc1-c1ccc2nc(NCCN3CCOCC3)ncc2c1` [AMG-47a], in that order: 2.35 µM and -101%.
In the experiment on HCT116 [1], `COC1=C(OCCCN2CCOCC2)C=C3N=CC=C(OC4=CC=C(C=C4F)\C5=C\N=C(\NC6=CC=C(F)C=C6)N(C)C5=O)C3=C1` [AMG-51] yielded an AC50 cell viability of 16.6 µM. Also, the efficacy with HCT116 [2] was -136%.
For `CC(C)[C@@H](C[S+](=O)([O-])C(C)C)N1C(=O)[C@@](C)(CC(=O)O)C[C@H](c2cccc(Cl)c2)[C@H]1c1ccc(Cl)cc1` [AMG-232], in that order: 1.48 µM and -84.7%.
For `COC1=CC2=NC=CC(=C2C=C1)OC3=CN=C(NC(=O)C/4=C(C)/N(CC(C)(C)O)N(C4=O)C5=CC=CC=C5)C=C3` [AMG-458], in that order: 16.6 µM and -71.6%.
Consider `COc1ncc(Nc2ncc([C@H](C)N3CCN([S+](C)(=O)[O-])CC3)cc2-c2nc(C)nc(N)n2)cc1F` [AMG-511], for which the AC50 cell viability in the experiment with HCT116 [1] turned out to be 5.9 µM. In addition, in the experiment with HCT116 [2], the efficacy was -80.5%.
In the experiment on HCT116 [1], `CN\1C(=O)/C(=C(\N=C1NC[C@@H](N)CC2=CC=CC=C2)C3=CC=NC=C3)C4=CC5=C(C=CC=C5)C=C4` [AMG-548] yielded an AC50 cell viability of 20.9 µM. The efficacy with HCT116 [2] was -101%.
